ChEMBL document CHEMBL1132366, “Conceptually new sulfone analogues of the hormone 1alpha, 25-dihydroxyvitamin D(3): synthesis and preliminary biological evaluation” (J Med Chem, 1999)

Columns and labels:
[1] = target: T1, Vitamin D3 receptor (Rattus norvegicus) (UniProt P13053); experiment: Vitamin D3 receptor-mediated transcriptional potency in rat osteosarcoma ROS 17/2.8 cells
T1 sequence (whole entry): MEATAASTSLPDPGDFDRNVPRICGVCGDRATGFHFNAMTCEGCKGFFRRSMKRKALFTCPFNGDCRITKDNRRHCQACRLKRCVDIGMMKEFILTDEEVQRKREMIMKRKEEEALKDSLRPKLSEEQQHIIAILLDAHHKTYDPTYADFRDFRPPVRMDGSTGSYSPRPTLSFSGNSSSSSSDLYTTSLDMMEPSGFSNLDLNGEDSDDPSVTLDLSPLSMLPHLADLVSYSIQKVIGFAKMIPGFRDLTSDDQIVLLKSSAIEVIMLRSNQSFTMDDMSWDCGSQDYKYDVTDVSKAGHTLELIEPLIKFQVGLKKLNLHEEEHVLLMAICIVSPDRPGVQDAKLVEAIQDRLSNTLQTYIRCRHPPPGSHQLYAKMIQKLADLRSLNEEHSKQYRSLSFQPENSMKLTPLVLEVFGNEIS

[2] = target: T1, Vitamin D3 receptor (Rattus norvegicus); experiment: Binding affinity for vitamin D3 receptor compared to 1,25D3 (100%)

Question: For `C=C1/C(=C/C=C2/CCC[C@]3(C)C([C@H](C)C/C=C(/F)S(=O)(=O)C(C)(C)C)=CC[C@@H]23)CC(O)CC1O` (some centres not stated), which ED50 [1] is on record?
Answer: 4 nM

Question: And the Affinity [2]?
Answer: 4%

Question: Which ED50 [1] does the source give for `C=C1C(=CC=C2CCC[C@]3(C)[C@@H]([C@H](C)CCCC(C)(C)O)CC[C@@H]23)C[C@@H](O)C[C@@H]1O` here?
Answer: 0.35 nM

Question: With `C=C1/C(=C/C=C2/CCC[C@]3(C)C([C@H](C)CCS(=O)(=O)C(C)(C)C)=CC[C@@H]23)C[C@@H](O)C[C@@H]1O` as the compound, how does the ED50 [1] read?
Answer: 0.8 nM

Question: What about the Affinity [2] of the same compound?
Answer: 21%

Question: What does the source list for `C=C1/C(=C/C=C2/CCC[C@]3(C)C([C@H](C)CCC(F)(F)S(=O)(=O)C(C)(C)C)=CC[C@@H]23)C[C@@H](O)C[C@@H]1O`?
Answer: ED50 [1]: 0.65 nM; Affinity [2]: 7.9%
